Measured values taken from patent US10183943B2, “Heterocyclic compounds and their use in preventing or treating bacterial infections” (MUTABILIS, priority 2015, dated 2019).

Tests used:
Format in all cases: cell-based
[1] = tested on: E. coli 190317 (TEM-1, SHV-12, CTX-M-15, OXA-1); assay: microbe, parasite or virus in culture; settings: Escherichia coli; strain 190317; CAZ alone, no compound
Procedure: (§1) Method 2: MIC of Compounds and Synergy with Ceftazidime Against Bacterial Isolates (Table 2 and 3)
(§2) Compounds of the present invention were assessed against genotyped bacterial strains alone or in combination with the β-lactam ceftazidime (CAZ). In the assays, MICs of said compounds, or of ceftazidime at fixed concentrations of said compounds were determined by the broth microdilution method according to the Clinical Laboratory Standards Institute (CLSI-M7-A7). Briefly, compounds alone according to the invention were prepared in DMSO and spotted (2 μL each) on sterile polystyrene plates (Corning, 3788). Compounds and ceftazidime dilutions were prepared in DMSO and spotted (1 μL each) on sterile polystyrene plates (Corning, 3788). Log phase bacterial suspensions were adjusted to a final density of 5×10^5 cfu/mL in cation-adjusted Mueller-Hinton broth (Becton-Dickinson) and added to each well (98 μL). Microplates were incubated for 16-20 h at 35° C. in ambient air. The MIC of the compounds was defined as the lowest concentration of said compounds that prevented bacterial growth as read by visual inspection. The MIC of ceftazidime at each compound concentration was defined as the lowest concentration of ceftazidime that prevented bacterial growth as read by visual inspection.

[2] = tested on: K. pneumoniae UFR68 (TEM-1, SHV-11, CTX-M-15, KPC-3); assay: microbe, parasite or virus in culture; settings: Klebsiella pneumoniae, read-out: MIC of CAZ
Procedure: as §1, §2

[3] = tested on: K. pneumoniae BAA-1898 (TEM-1, SHV-11, SHV-12, KPC-2); assay: MIC of ceftazidime (CAZ) in combination with compounds at 4 μg/mL, broth microdilution; settings: Klebsiella pneumoniae, BAA1898; strain BAA-1898; CAZ alone, no compound
Procedure: as §1, §2

[4] = tested on: E. cloacae P99 (AmpC); assay: as above; settings: Enterobacter cloacae; strain P99; CAZ alone, no compound
Procedure: as §1, §2

[5] = tested on: K. pneumoniae UFR77 (CMY-2); assay: as above; settings: Klebsiella pneumoniae; strain UFR77; CAZ alone, no compound
Procedure: as §1, §2

[6] = tested on: E. coli UFR61O (TEM-1, KPC-2); assay: as above; settings: Escherichia coli; strain UFR61O; CAZ alone, no compound
Procedure: as §1, §2

[7] = tested on: P. aeruginosa CIP107051 (TEM-24); assay: as above; settings: Pseudomonas aeruginosa; strain CIP107051; CAZ alone, no compound
Procedure: as §1, §2

[8] = tested on: E. coli 131119 (TEM-1, OXA-48); assay: as above; settings: Escherichia coli; strain 131119; CAZ alone, no compound
Procedure: as §1, §2

[9] = tested on: K. pneumoniae 6299 (TEM-1, SHV-11, OXA-163); assay: as above; settings: Klebsiella pneumoniae; strain 6299; CAZ alone, no compound
Procedure: as §1, §2

[10] = tested on: K. pneumoniae UFR39 (CTX-M-15, NDM-1); assay: as above; settings: Klebsiella pneumoniae; strain UFR39; CAZ alone, no compound
Procedure: as §1, §2

[11] = tested on: K. pneumoniae 160143 (TEM-1, SHV-1, CTX-M-15, KPC-2, OXA-1); assay: as above; settings: Klebsiella pneumoniae; strain 160143; CAZ alone, no compound
Procedure: as §1, §2

[12] = tested on: E. cloacae UFR85 (TEM-1, CTX-M-15, AmpC); assay: as above; settings: Enterobacter cloacae; strain UFR85; CAZ alone, no compound
Procedure: as §1, §2

[13] = tested on: E. coli UFR74 (SHV-1, DHA-1); assay: as above; settings: Escherichia coli; strain UFR74; CAZ alone, no compound
Procedure: as §1, §2

[14] = tested on: K. pneumoniae UFR24 (TEM-1, SHV-2, SHV-11, OXA-1, OXA-48, OXA-47); assay: as above; settings: Klebsiella pneumoniae, read-out: MIC of CAZ
Procedure: as §1, §2

[15] = tested on: K. pneumoniae 200047 (TEM-1, SHV-32, CTX-M-15, OXA-1); assay: as above; settings: Klebsiella pneumoniae; strain 200047; CAZ alone, no compound
Procedure: as §1, §2

[16] = tested on: E. coli UFR41 (TEM-1, CTX-M-15, CMY-2, OXA-1, NDM-4); assay: as above; settings: Escherichia coli, read-out: MIC of CAZ
Procedure: as §1, §2

[17] = tested on: E. cloacae UFR51 (SHV-12, IMP-8); assay: as above; settings: Enterobacter cloacae, read-out: MIC of CAZ
Procedure: as §1, §2

[18] = tested on: E. coli UFR18 (CTX-M-15, OXA-204); assay: as above; settings: Escherichia coli, read-out: MIC of CAZ
Procedure: as §1, §2

[19] = tested on: E. cloacae 260508 (TEM-1, CTX-M-15); assay: as above; settings: Enterobacter cloacae; strain 260508; CAZ alone, no compound
Procedure: as §1, §2

[20] = tested on: E. coli RGN238 (OXA-1); assay: as above; settings: Escherichia coli; strain RGN238; CAZ alone, no compound
Procedure: as §1, §2

[21] = tested on: E. coli UFR32 (TEM-1, VEB-1, OXA-10); assay: as above; settings: Escherichia coli, read-out: MIC of CAZ
Procedure: as §1, §2

[22] = tested on: K. oxytoca UFR21 (TEM-1, CTX-M-15, OXA-48); assay: as above; settings: Klebsiella oxytoca; strain UFR21; CAZ alone, no compound
Procedure: as §1, §2

[23] = tested on: E. cloacae UFR70 (TEM-1, CTX-M-15, CMY-2, OXA-1, Porin loss); assay: as above; settings: Enterobacter cloacae, read-out: MIC of CAZ
Procedure: as §1, §2

SMILES: CC(C)(O/N=C(\C(=O)N[C@@H]1C(=O)N2C(C(=O)[O-])=C(C[n+]3ccccc3)CS[C@H]12)c1csc(N)n1)C(=O)O [ceftazidime]
- MIC [1]: 128 µg/mL
- MIC [2]: > 128 µg/mL
- MIC [3]: 256 µg/mL
- MIC [4]: 128 µg/mL
- MIC [5]: 64 µg/mL
- MIC [6]: 128 µg/mL
- MIC [7]: 256 µg/mL
- MIC [8]: 0.5 µg/mL
- MIC [9]: 256 µg/mL
- MIC [10]: > 1020 µg/mL
- MIC [11]: 128 µg/mL
- MIC [12]: 128 µg/mL
- MIC [13]: 64 µg/mL
- MIC [14]: > 128 µg/mL
- MIC [15]: 128 µg/mL
- MIC [16]: > 128 µg/mL
- MIC [17]: > 128 µg/mL
- MIC [18]: > 128 µg/mL
- MIC [19]: 128 µg/mL
- MIC [20]: 0.5 µg/mL
- MIC [21]: > 128 µg/mL
- MIC [22]: 128 µg/mL
- MIC [23]: > 128 µg/mL
